Tests used:
[1] = target: T1, human recombinant A1 receptors (Homo sapiens, UniProt P30542); assay: Estimation of Adenosine A1-receptor antagonizing activity ([3H]-DPCPX binding, CHO cell membrane fractions)
T1 construct: expressed in transfected cells; host or cells: CHO cells
T1 sequence (P30542 1-326): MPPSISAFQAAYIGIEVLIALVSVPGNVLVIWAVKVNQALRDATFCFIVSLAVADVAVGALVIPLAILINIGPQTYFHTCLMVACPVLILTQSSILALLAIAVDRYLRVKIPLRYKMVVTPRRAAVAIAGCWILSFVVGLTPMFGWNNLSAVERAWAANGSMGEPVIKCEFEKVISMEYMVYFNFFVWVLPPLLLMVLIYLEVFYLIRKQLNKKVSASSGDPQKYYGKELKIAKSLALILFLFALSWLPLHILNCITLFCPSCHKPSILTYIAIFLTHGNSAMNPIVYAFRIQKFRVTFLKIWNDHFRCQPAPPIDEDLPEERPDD
Description: (§1) The existence and intensity of “adenosine A1-receptor antagonizing activity” and/or “adenosine A2a-receptor antagonizing activity” can be ascertained and assessed typically by the following test method. The intensity of adenosine A1-receptor antagonizing action and of adenosine A2a-receptor antagonizing action as referred to in the appended claims also means the value found by the method described below.
(§2) “Estimation of Adenosine A1 and A2a-receptor antagonizing activity”
(§3) Membrane fractions prepared from the CHO cells which transfected stably with human recombinant A1 or A2a receptors were incubated for 1 hr at 25° C. with test compounds, ADA, 50 mM Tris buffer and [3H]-DPCPX (final 4 nM) or [3H]-CGS21680 (final 15 nM), respectively. Reaction mixtures were filtrated with 96-well harvestor to separate free ligands from bound fraction using GF/C filter. Radioactivity of the dried filter was counted, and specific binding of each labelled rigands was calculated.

[2] = target: T2, human recombinant A2a receptors (Homo sapiens, UniProt P29274); assay: Estimation of Adenosine A2a-receptor antagonizing activity ([3H]-CGS21680 binding, CHO cell membrane fractions); details: at a concentration of 1.0×10^−6 M; [3H]-CGS21680 15 nM; read-out: inhibition rate for Adenosine A2a-receptor
T2 construct: expressed in transfected cells; host or cells: CHO cells
Description: as §1, §2, §3

Mice = assay: Test 1 Anticataleptic action (haloperidol-induced catalepsy); format: in vivo; details: 1 mg/kg oral, 30 min before haloperidol 0.32 mg/kg i.p., observed 30 min later, control 100
Protocol: Test 1 Anticataleptic Action
Mice were orally dosed with the test compound as a suspention in 0.5% of methyl cellulose and, 30 minutes later, intraperitoneally dosed with 0.32 mg/kg of haloperidol.

male SD rats = assay: Test 2 Anxiolytic action (social interaction test); format: in vivo; details: 0.32 mg/kg oral 1 h before test, 15 min observation, control 51.3 ± 6.0
Protocol: Two male SD rats acclimated for 1 week and handled once were used in sets. One hour before beginning of the test, both rats in each set were orally dosed with the same amount of the test compound or the vehicle. Immediately thereafter, both rats were placed in a new environment where territories were to be established as yet and their behaviors were monitored and recorded over 15 minutes. After the test, the records were analyzed and evaluated in terms of the total duration of social interaction (social interaction time) (observation items: sniffing, following, grooming, kicking, boxing, biting, wrestling, crawling under or over the partner).

Male Wistar rats = assay: Test 3 Impaired-memory ameliorating action (scopolamine-impaired retention trial); format: in vivo; details: scopolamine 1 mg/kg i.p. + test compound 1 mg/kg i.p. immediately after acquisition trial, scopolamine + control 80.2 ± 34.9, intact 300 ± 0
Protocol: Test 3 Impaired-Memory Ameliorating Action
Male Wistar rats were serially subjected to an acclimation trial, an acquisition trial 1 hour after the acclimation trial, and a retention trial 24 hours after the acquisition trial. Scopolamine 1 mg/kg was intraperitoneally administered 30 minutes before the acquisition trial. The test compound was intraperitoneally administered immediately after the acquisition trial.

T2 sequence (P29274 whole entry): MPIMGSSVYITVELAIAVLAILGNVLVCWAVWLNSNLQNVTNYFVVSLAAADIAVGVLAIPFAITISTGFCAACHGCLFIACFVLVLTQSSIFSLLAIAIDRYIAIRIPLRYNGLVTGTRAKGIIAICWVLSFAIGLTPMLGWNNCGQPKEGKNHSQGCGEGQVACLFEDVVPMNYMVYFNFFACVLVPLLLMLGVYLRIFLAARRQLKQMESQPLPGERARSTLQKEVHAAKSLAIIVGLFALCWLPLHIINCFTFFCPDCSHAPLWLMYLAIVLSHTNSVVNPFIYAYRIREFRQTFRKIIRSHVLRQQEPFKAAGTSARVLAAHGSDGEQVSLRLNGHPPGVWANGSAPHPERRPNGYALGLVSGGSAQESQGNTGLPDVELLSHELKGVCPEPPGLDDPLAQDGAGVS

How did the “affinity for the adenosine A1-receptor relative to affinity for the adenosine A2a receptor” value ([1]; A1 affinity as a multiple of A2a affinity) turn out when `O=c1ccc(-c2c(-c3ccccc3)nn3ccccc23)nn1Cc1nccs1` [(A), 3-[2-(Thiazol-2-ylmethyl)-3-oxo-2,3-dihydropyridazin-6-yl]-2-phenylpyrazolo[1,5-a]pyridine] was run?
The value was 36 times.

What about the inhibition at 1 µM ([1]; at a concentration of 1.0×10^−6 M, [3H]-DPCPX 4 nM, read-out: inhibition rate for Adenosine A1-receptor) of the same molecule?
Its inhibition at 1 µM is no less than 80%.

What about the inhibition at 1 µM [2] of the same molecule?
The inhibition at 1 µM was no less than 80%.

What about the Incidence of catalepsy (Mice) of the same molecule?
The Incidence of catalepsy was 20%.

And the Social interaction time (male SD rats)?
The Social interaction time was 90.5 ± 12.5 s.

What about the “Reaction latency in retention trial” value (Male Wistar rats) of the same molecule?
Its value is 215.6 ± 35.0 s.

— patent US20040152659A1, “Method for the treatment of parkinson's disease comprising administering an A1A2a receptor dual antagonist” (Fujisawa Pharmaceutical Co. Ltd., priority 1999, published 2004)
